Data as given in publication PMC12374861, “Synthetic Peptides Suppress Nervous Necrosis Virus Absorption and Improve Survival Rates in European Sea Bass” (Marine Biotechnology (New York, N.y.), 2025).
Ends that are not written are not given here.

Legend:
[1] = system: RGNNV; parameters: method as in Zhu et al. [2022]; details: RGNNV-infected hybrid grouper; ref Zhu et al. [2022]; cited from earlier work
Method: Given RGNNV’s rapid organ colonisation (Valero et al. [2018]), treatments were administered 2 h post-infection to ensure viral establishment.

[2] = system: NNV; details: synthetic sea bass peptides, NNV infection; ref Cervera et al. [2024b], [2025]; cited from earlier work
Method: Since co-administered peptides disrupt RGNNV adsorption in vitro, we evaluated their therapeutic potential in vivo by administering them […]. […] Given RGNNV’s rapid organ colonisation (Valero et al. [2018]), treatments were administered 2 h post-infection to ensure viral establishment.

[3] = system: RGNNV; test: RGNNV in vivo bath challenge of European sea bass with peptide injection after infection; parameters: species or system European sea bass (Dicentrarchus labrax)
Method: RGNNV In vivo Challenge of European Sea Bass
A total of 375 sea bass were randomly assigned to eight experimental groups (in duplicate) and acclimated for 15 days. Seven groups were infected by immersion (10 L; 3.16 × 10^4 TCID₅₀ RGNNV/mL; 2 h), while a mock-infected control received conditioned medium. […] Combinations were selected according to the results obtained in the competitive in vitro assay against RGNNV (see below). Disease signs and mortalities were monitored daily for 23 days post-infection (dpi) using a four-rank scale (Valero et al. [2021a]). Fish (n = 6/group/time-point) were sampled at 2 and 23 dpi, euthanized with clove oil, bled, and weighed. Brain, NNV target tissue, and head-kidney, major hematopoietic tissue in fish, were dissected, frozen in TRIzol (Life Technologies), and stored at − 80 °C.
For viral load analysis, total RNA was extracted from sea bass brain and head-kidney using TRIzol (Life Technologies) and from E − 11 cells using the GenJET RNA Purification Kit (Thermo Fisher Scientific), following manufacturer protocols. One microgram of RNA was DNAse I-treated (1 U/µL; Thermo Scientific), and cDNA was synthesized using Superscript IV Reverse Transcriptase (Invitrogen). qPCR was performed on a QuantStudio 5 Flex (Applied Biosystems) to quantify cp, rdrp and mx genes using PowerUp SYBR Green reagents (Applied Biosystems). The protocol included a 95 °C hold, then 40 cycles (95 °C; 15 s) and 60 °C for 1 min. Relative expression was calculated using the 2^⁻ΔCt method (Livak and Schmittgen [2001]), with ef1a as the endogenous control. Primers (Supplementary Data S2) were validated by melting curve analysis and negative controls.
Fish mortality was analysed using Kaplan–Meier survival curves with log-rank (Mantel–Cox) tests for significance. Relative gene expression was evaluated by one-way ANOVA (p ≤ 0.05) followed by Tukey’s test. Viral kinetics were compared between P4-treated and untreated groups using Student’s t-test (p ≤ 0.05) at specific time points. All analyses were performed with IBM SPSS Statistics 20.
Fig. 4 Therapeutic administration of synthetic peptides improves survival and symptomatology in […] (RGNNV)-infected European sea bass juveniles. […] A mock-infected group was treated twice with only PBS. (A) Kaplan–Meier survival curves; (B) Heat-map representing the cumulated number of fish showing clinical signs of VER disease attending to their severity: (1) changes of the color of the skin, slower rhythm of swimming and/or slower reaction to external stimuli as feeding; (2) alterations in the swimming balance and/or erratic swimming spasms; (3) continuous erratic swimming; and (4) complete incapacity to keep balance, swim and/or move without external stimuli. VER, viral encephalopathy and retinopathy
Fig. 5 Therapeutic administration of synthetic peptides decreased viral loads in the brain without additional mx gene regulation in the sea bass juveniles head-kidney infected with red-spotted grouper nervous necrosis virus (RGNNV). […] A mock-infected group was treated twice with only PBS. (A–C) Transcription levels of RGNNV cp (A) and rdrp (B) genes in the brain and (C) mx gene in the head-kidney. Data represent the relative gene expression mean ± SEM (n = 6). Different letters indicate significant differences among groups according to the ANOVA (p < 0.05)

[4] = system: RGNNV/SJNNV reassortant; test: In vitro antiviral (competition) assay: virus incubated with peptide, then titrated in E-11 cells; type: cell-based, RGNNV/SJNNV reassortant (367.2.2005); details: virus (MOI 0.01) incubated with 500 μg/mL peptide for 15 min at 25 °C, control virus + PBS, representative of two independent assays, Fig. 2B
Method: (§1) Parental RGNNV (strain It/411/96), SJNNV (strain SJNag97), and reassortant isolates (RGNNV/SJNNV, 367.2.2005; SJNNV/RGNNV, 389/I96) were used. Viruses were propagated in E − 11 cells cultured in L-15 Leibovitz medium (BioWest) supplemented with 5% FBS, 2 mM L-glutamine, and 100 IU/mL penicillin/streptomycin (Thermo Fisher Scientific) at 25 °C. Infected monolayers were incubated at 25 °C until extensive cytopathic effect (CPE) developed. Supernatants were then harvested, centrifuged, and titrated in triplicate using the end-point dilution method, expressed as TCID₅₀/mL (Reed and Müench [1938]).
(§2) For in vitro antiviral assays, viral cultures (MOI 0.01) from parental and reassortant strains were incubated with peptides (single or combined) using a non-lethal concentration previously tested (500 μg/mL; León et al. [2020]), for 15 min at 25 °C with gentle agitation. Controls were virus samples incubated with PBS (100% viral activity). Treated samples were titrated as previously. After medium removal, cells were exposed to ten-fold viral dilutions in 2% FBS. CPE was monitored daily for 10 days, and viral titres were calculated as TCID₅₀/mL (Reed and Müench [1938]) and expressed as viral titre or percent inhibition relative to controls.
Fig. 2 Designed peptides, single or combined, reduce the NNV absorption in vitro. […]

[5] = system: SJNNV; type: cell-based, striped jack nervous necrosis virus (strain SJNag97); details: virus (MOI 0.01) incubated with 500 μg/mL peptide for 15 min at 25 °C, titrated in E-11 cells; control virus + PBS; representative of two independent assays; Fig. 2B
Method: as §1, §2
Fig. 2 Designed peptides, single or combined, reduce the NNV absorption in vitro. NNV parental or reassortant genotypes were incubated with 500 μg/mL of the synthetic peptides for 15 min. Then, the viruses were titrated in the E − 11 cell line. Control samples consisted on virus incubated with the same amount of phosphate buffer saline. (A) Viral titer (TCID50/mL) and (B) % of virus inhibition with respect to the controls are represented. Data are representative of two independent assays. […] Each bar was matched to a substance by its colour and by the order of the legend.

[6] = system: E-11 cells; test: MTT cytotoxicity test on E-11 cells; type: cell-based; details: 24 h at 25 °C, mean of n = 3, control = 100.0
Method: Synthetic peptides cytotoxicity on E − 11 cells was assessed using the MTT (Sigma) test with serial peptide dilutions (1000–4 µg/mL in L − 15 medium; n = 3; 24 h at 25 °C) as elsewhere (Cervera et al. [2024c]). Absorbance was measured at 570 nm (BMG Labtech); blanks lacked cells. Cell viability was calculated as the OD ratio of treated to untreated cells × 100, normalized at 690 nm.
Supplementary data S4: Cell viability (%) of E-11 cells after incubation with the synthetic peptides for 24 h. Data represent the mean ± SEM (n=3).

## NC12CC3CC(CC(C3)C1)C2 [amantadine]
[1]
  Improvement of survival: 44%

## Hepcidin
[2]
  Reduction of mortality: 30–35%

## VSKASTVTGFGR-NH2 [Peptide P2]
[3]; juvenile sea bass, bath infection 3.16 × 10^4 TCID₅₀ RGNNV/mL for 2 h, then intramuscular injection 1 µg peptide/g, 23 dpi, infected PBS group 63.6% survival
  Relative percent survival (RPS): 43.8%
[3]; qPCR relative to ef1a, 2 dpi, n = 6, 1 µg peptide/g i.m. after RGNNV bath challenge, Fig. 5A
  RGNNV cp gene expression in the brain: no transcriptional effect
[3]; qPCR relative to ef1a, 2 dpi, n = 6, 1 µg peptide/g i.m. after RGNNV bath challenge, Fig. 5B
  RGNNV rdrp gene expression in the brain: no transcriptional effect
[4]
  % of virus inhibition with respect to the controls, RGNNV/SJNNV: 96.84%
[5]
  % of virus inhibition with respect to the controls, SJNNV: 90%
[6]; peptide 0.00411 mg/mL
  Viability (%) of E-11 cells, mean: 103.1%
[6]; peptide 0.01234 mg/mL
  Viability (%) of E-11 cells, mean: 121.8%
[6]; peptide 0.03704 mg/mL
  Viability (%) of E-11 cells, mean: 111.5%
[6]; peptide 0.11111 mg/mL
  Viability (%) of E-11 cells, mean: 106.2%
[6]; peptide 0.33333 mg/mL
  Viability (%) of E-11 cells, mean: 126.9%
[6]; peptide 1.00000 mg/mL
  Viability (%) of E-11 cells, mean: 117.2%
